Laboratory results as given in patent US20250136556A1, “NOVEL MODULATORS OF THE ARYL HYDROCARBON RECEPTOR AND METHODS OF USE THEREOF” (Allianthera (Suzhou) Biopharmaceutical Co., Ltd., priority 2021, published 2025).

Biological target: T1, Human Aryl Hydrocarbon Receptor (AHR) (Homo sapiens, UniProt P35869)
T1 construct: purchased INDIGO Bioscience IB06001-32; host or cells: AHR Reporter Cell (proprietary kit cells)
T1 sequence (P35869 11-848): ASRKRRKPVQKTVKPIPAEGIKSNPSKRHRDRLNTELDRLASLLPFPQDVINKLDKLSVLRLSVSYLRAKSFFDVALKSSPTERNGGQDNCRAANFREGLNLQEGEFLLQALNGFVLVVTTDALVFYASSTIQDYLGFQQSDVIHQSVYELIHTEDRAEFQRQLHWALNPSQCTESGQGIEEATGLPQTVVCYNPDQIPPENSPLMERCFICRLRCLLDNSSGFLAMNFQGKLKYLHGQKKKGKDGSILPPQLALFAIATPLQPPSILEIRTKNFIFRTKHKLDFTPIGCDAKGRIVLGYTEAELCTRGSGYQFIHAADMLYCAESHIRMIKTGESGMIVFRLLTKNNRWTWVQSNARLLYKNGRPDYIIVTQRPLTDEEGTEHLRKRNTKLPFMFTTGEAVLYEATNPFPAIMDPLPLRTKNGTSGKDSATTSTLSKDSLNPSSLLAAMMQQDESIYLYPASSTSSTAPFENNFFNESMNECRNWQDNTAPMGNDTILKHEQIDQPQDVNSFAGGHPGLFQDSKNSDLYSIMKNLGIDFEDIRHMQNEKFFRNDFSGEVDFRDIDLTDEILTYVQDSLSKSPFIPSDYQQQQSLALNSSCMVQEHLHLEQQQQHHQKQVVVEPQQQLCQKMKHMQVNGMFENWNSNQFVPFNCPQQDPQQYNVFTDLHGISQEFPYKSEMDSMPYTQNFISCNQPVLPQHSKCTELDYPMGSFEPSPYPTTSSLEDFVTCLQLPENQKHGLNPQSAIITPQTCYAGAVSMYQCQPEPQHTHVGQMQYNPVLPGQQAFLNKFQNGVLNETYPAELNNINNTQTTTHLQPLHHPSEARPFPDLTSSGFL
Assay: AHR agonist reporter assay in human cell line (INDIGO luciferase reporter);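 further: firefly luciferase luminescence read on a plate reader, values normalized against positive and negative controls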
Assay type: cell-based
Conditions: reporter cells, 24 hours incubation, second line of cell; read-out: AHR abEC50
Procedure: The AHR reporter assay was performed following the protocol of the Human Aryl Hydrocarbon Receptor (AHR) Reporter Assay System (INDIGO Bioscience, #IB06001-32). AHR Reporter Cell was thawed and pre-incubated in Cell Recovery Medium (CRM) for 6 hours. […] Following 24 hours incubation, the media was removed and Luciferase Detection Reagent (LDR) added. The firefly luciferase activity was quantified using a plate reader. Results were normalized by positive and negative controls.

| EC50 | SMILES |
| --- | --- |
| 25.2 nM | CC(C)c1c(O)cc(-c2cc(C(F)(F)F)c3cc(F)ccc3n2)cc1O [Compound 1] |
| > 100 nM | CC(C)c1c(O)cc(-c2cnc3c(F)cc(N)cc3c2)cc1O [Compound 2] |
| > 100 nM | CC(C)c1c(O)cc(-c2ccnc3c(F)cccc23)cc1O [Compound 3] |
| > 100 nM | CC(C)c1c(O)cc(-c2ccnc3ccc(F)cc23)cc1O [Compound 4] |
| 78.7 nM | CC(C)c1c(O)cc(-c2cccc3cc(F)c(O)nc23)cc1O [Compound 5] |
| 109 nM | CC(C)c1c(O)cc(-c2cc(F)c3ncccc3c2)cc1O [Compound 6] |
| > 100 nM | CC(C)c1c(O)cc(-c2cc3cccnc3cc2F)cc1O [Compound 7] |
| > 100 nM | CC(C)c1c(O)cc(-c2ccc3nccc(F)c3c2)cc1O [Compound 8] |
| 20.9 nM | CC(C)c1c(O)cc(-c2ccc3cc(F)ccc3n2)cc1O [Compound 9] |
| 33.4 nM | CC(C)c1c(O)cc(-c2ccc3ncccc3c2F)cc1O [Compound 10] |
| > 100 nM | CC(C)c1c(O)cc(-c2cnc3ccc(F)cc3c2)cc1O [Compound 11] |
| > 100 nM | CC(C)c1c(O)cc(-c2cc(F)c3ncccc3c2F)cc1O [Compound 12] |
| > 100 nM | CC(C)c1c(O)cc(-c2ccc(F)c3ccc(C(F)(F)F)nc23)cc1O [Compound 13] |
| > 100 nM | CC(C)c1c(O)cc(-c2cc(O)cc3cccnc23)cc1O [Compound 15] |
| > 100 nM | CNc1ccnc2ccc(-c3cc(O)c(C(C)C)c(O)c3)cc12 [Compound 16] |
| > 100 nM | CC(C)c1c(O)cc(-c2ccnc3c(Cl)cccc23)cc1O [Compound 17] |
| > 100 nM | COc1cc(-c2cc(O)c(C(C)C)c(O)c2)cc2cccnc12 [Compound 18] |
| > 100 nM | CC(C)c1c(O)cc(-c2cccc3ncccc23)cc1O [Compound 20] |
| > 100 nM | COc1cc2ncccc2cc1-c1cc(O)c(C(C)C)c(O)c1 [Compound 21] |
| > 100 nM | CC(C)c1c(O)cc(-c2cnc3cccc(O)c3c2)cc1O [Compound 23] |
| > 100 nM | CC(C)c1c(O)cc(-c2cc(N)c3ccccc3n2)cc1O [Compound 24] |
| > 100 nM | CC(C)c1c(O)cc(-c2cccc3ccc(C(=O)O)nc23)cc1O [Compound 25] |
| > 100 nM | Cc1cnc2ccc(-c3cc(O)c(C(C)C)c(O)c3)cc2c1 [Compound 26] |
| > 100 nM | COc1ccc2ccc(-c3cc(O)c(C(C)C)c(O)c3)cc2n1 [Compound 27] |
| > 100 nM | CC(C)c1c(O)cc(-c2cc3ccccc3nc2C#N)cc1O [Compound 28] |
| > 100 nM | CC(C)c1c(O)cc(-c2ccc3nccc(C#N)c3c2)cc1O [Compound 30] |
| > 100 nM | CC(C)c1c(O)cc(-c2cncc3ccc(F)cc23)cc1O [Compound 32] |

| EC50 | SMILES |
| --- | --- |
| > 100 nM | CC(C)c1c(O)cc(-c2cc3cnccc3cc2F)cc1O [Compound 34] |
| > 100 nM | CC(C)c1c(O)cc(-c2cc(F)c3nccnc3c2)cc1O [Compound 36] |
| > 100 nM | CC(C)c1c(O)cc(-c2c(Cl)cc3c(O)ncnc3c2F)cc1O [Compound 38] |
| > 100 nM | CC(C)c1c(O)cc(-c2ccc3nccnc3c2)cc1O [Compound 40] |
| > 100 nM | CC(C)c1c(O)cc(-c2ccc3ncnc(N)c3c2)cc1O [Compound 42] |
| > 100 nM | CC(C)c1c(O)cc(-c2nccc3cccnc23)cc1O [Compound 44] |
| 38.9 nM | CC(C)c1c(O)cc(-c2cnc3c(F)c(F)ccc3c2)cc1O [Compound 45] |
| 90 nM | CC(C)c1c(O)cc(-c2cnc3c(C(F)(F)F)cccc3c2)cc1O [Compound 51] |
| > 100 nM | CC(C)c1ncc(-c2cc(C(F)(F)F)c3cc(F)ccc3n2)cc1O [Compound 52] |
| > 100 nM | CC(C)c1ncc(-c2cnc3c(F)cc(N)cc3c2)cc1O [Compound 53] |
| > 100 nM | CC(C)c1ncc(-c2ccnc3c(F)cccc23)cc1O [Compound 54] |
| > 100 nM | CC(C)c1ncc(-c2ccnc3ccc(F)cc23)cc1O [Compound 55] |
| > 100 nM | CC(C)c1ncc(-c2cc(F)c3ncccc3c2)cc1O [Compound 57] |
| > 100 nM | CC(C)c1ncc(-c2cc3cccnc3cc2F)cc1O [Compound 58] |
| > 100 nM | CC(C)c1ncc(-c2ccc3nccc(F)c3c2)cc1O [Compound 59] |
| > 100 nM | CC(C)c1ncc(-c2ccc3cc(F)ccc3n2)cc1O [Compound 60] |
| > 100 nM | CC(C)c1ncc(-c2ccc3ncccc3c2F)cc1O [Compound 61] |
| > 100 nM | CC(C)c1ncc(-c2cc(F)c3ncccc3c2F)cc1O [Compound 63] |
| > 100 nM | CC(C)c1ncc(-c2ccc(F)c3ccc(C(F)(F)F)nc23)cc1O [Compound 64] |
| > 100 nM | CC(C)c1ncc(-c2ccnc3c(Cl)cccc23)cc1O [Compound 68] |
| > 100 nM | COc1cc(-c2cnc(C(C)C)c(O)c2)cc2cccnc12 [Compound 69] |
| > 100 nM | CC(C)c1ncc(-c2cccc3ncccc23)cc1O [Compound 71] |
| > 100 nM | COc1cc2ncccc2cc1-c1cnc(C(C)C)c(O)c1 [Compound 72] |
| > 100 nM | Cc1ccnc2cc(-c3cnc(C(C)C)c(O)c3)ccc12 [Compound 73] |
| > 100 nM | CC(C)c1ncc(-c2cccc3ccc(C(=O)O)nc23)cc1O [Compound 76] |
| > 100 nM | Cc1cnc2ccc(-c3cnc(C(C)C)c(O)c3)cc2c1 [Compound 77] |
| > 100 nM | COc1ccc2ccc(-c3cnc(C(C)C)c(O)c3)cc2n1 [Compound 78] |

| EC50 | SMILES |
| --- | --- |
| > 100 nM | CC(C)c1ncc(-c2cc3ccccc3nc2C#N)cc1O [Compound 79] |
| > 100 nM | CC(C)c1ncc(-c2ccc3nccc(C#N)c3c2)cc1O [Compound 81] |
| > 100 nM | CC(C)c1ncc(-c2cncc3ccc(F)cc23)cc1O [Compound 83] |
| > 100 nM | CC(C)c1ncc(-c2cc3cnccc3cc2F)cc1O [Compound 85] |
| > 100 nM | CC(C)c1ncc(-c2c(Cl)cc3c(O)ncnc3c2F)cc1O [Compound 89] |
| > 100 nM | CC(C)c1ncc(-c2cc(F)c3cnc(N)nc3c2)cc1O [Compound 90] |
| > 100 nM | CC(C)c1ncc(-c2ccc3nccnc3c2)cc1O [Compound 91] |
| > 100 nM | CC(C)c1ncc(-c2ncnc3ccccc23)cc1O [Compound 92] |
| > 100 nM | Cc1ccnc2c(-c3cnc(C(C)C)c(O)c3)ccnc12 [Compound 94] |
| > 100 nM | CC(C)c1ncc(-c2nccc3cccnc23)cc1O [Compound 95] |
| > 100 nM | CC(C)c1ncc(-c2cnc3c(F)c(F)ccc3c2)cc1O [Compound 96] |
| 94.4 nM | CC(C)c1ncc(-c2nc3ccccc3[nH]2)cc1O [Compound 101] |
| > 400 nM | CC(C)n1c(O)cc(/C=C/c2ccccc2)cc1=O [Compound 105, (E)-6-hydroxy-1-isopropyl-4-styrylpyridin-2(1H)-one] |
| 143 nM | CC(=O)c1c(O)cc(/C=C/c2ccccc2)cc1O [Compound 108] |
| > 100 nM | CC(C)c1onc(/C=C/c2ccccc2)c1O [Compound 109, 5-isopropyl-3-[(E)-2-phenylethenyl]-1,2-oxazol-4-ol] |
| > 100 nM | CC(C)c1ncc(/C=C/c2ccccc2)cc1N [Compound 117, 2-isopropyl-5-[(E)-2-phenylethenyl]pyridin-3-amine] |
| > 100 nM | CC(C)c1ncc(-c2cnc3ccccc3c2)cc1N [Compound 120, 2-isopropyl-5-(quinolin-3-yl) pyridin-3-amine] |
| > 100 nM | CC(C)c1nc2c(cc1O)CC(c1ccccc1)O2 (centres unmarked) [Compound 127, 6-isopropyl-2-phenyl-2H,3H-furo[2,3-b]pyridin-5-ol] |
| > 400 nM | CC(C)c1c(O)cc(Sc2ccccc2)cc1O [Compound 129, 2-isopropyl-5-(phenylthio) benzene-1,3-diol] |
| > 400 nM | CC(C)c1c(O)cc([S+]([O-])c2ccccc2)cc1O (centres unmarked) [Compound 130, 2-isopropyl-5-(phenylsulfinyl) benzene-1,3-diol] |
| > 400 nM | CC(C)c1c(O)cc(S(=O)(=O)c2ccccc2)cc1O [Compound 131, 2-isopropyl-5-(phenylsulfonyl)benzene-1,3-diol] |
| > 400 nM | CC(C)c1c(O)cc(Oc2ccccc2)cc1O [Compound 132, 2-isopropyl-5-phenoxybenzene-1,3-diol] |
| 101 nM | CC(C)c1ncc(-c2nc3ccccc3[nH]2)cc1N [Compound 134] |
| > 100 nM | CC(C)c1ncc(/C=C/c2ccccn2)cc1O [Compound 136] |
| < 8 nM | COc1cc(/C=C/c2ccccc2)cc(O)c1C(C)C [Compound 137] |
| 17.1 nM | FC(F)(F)c1ccc(Nc2nccc(-c3cccc(Cl)c3)n2)cc1 [Reference, reference compound] |
